Reference: patent US20230348475A1, “IMIDAZOPYRIDAZINE AND IMIDAZOPYRAZINE COMPOUNDS AS INHIBITORS OF CDK7” (THE TRANSLATIONAL GENOMICS RESEARCH INSTITUTE, priority 2020, published 2023)
pIC50: −log10 of the molar value. Where a name gives a salt, the structure may show the parent alone.

What was measured:
[1] = tested on: MDA-MB-231 breast cancer cell line; assay: Cell viability assay (Cell Titer Glo), MDA-MB-231; assay type: cell-based; conditions: Homo sapiens, MDA-MB-231; Table 7a; breast cancer cell line, 72 hour incubation
Experimental: (§1) Materials: • Cell Lines (Treated according to ATCC guidelines) • Cell Titer Glo (Promega Cat #G7572) • DMSO • 96-well White Tissue Culture Treated Plates (Perkin Elmer Cat #60005680)
(§2) Cells were seeded in a white 96-well tissue culture treated plate at a density of 1500 cells in 90 μL of media per well and allowed to settle overnight. A ten point serial dilution of drugs was prepared at 10×concentration in media with the final assay concentrations starting at 30 μM, 10 μM, 3 μM, 1 μM, 0.3 μM . . . 0 μM. A dilution of DMSO was included as a control. The assay was set up by adding 10 μL of the corresponding drug to each well in duplicate, followed by a 72 hour incubation at 37° C., 5% CO2. Cell viability was quantified by adding 90 μL of Cell Titer Glo to each well and incubating at room temperature for 10 minutes. The reaction was quantified by measuring luminescence using the Envision Plate Reader. Data was analyzed using Graphpad Prism 7 software.

[2] = tested on: Kasumi1 leukemia cancer cell line; assay: Cell viability assay (Cell Titer Glo), Kasumi1; assay type: cell-based; conditions: Homo sapiens, Kasumi 1, Table 7a, 72 hour incubation
Experimental: as §1, §2

[3] = tested on: A2780 ovarian cancer cell line; assay: Cell viability assay (Cell Titer Glo), A2780; assay type: cell-based; conditions: Homo sapiens, A2780, Table 7a, 72 hour incubation
Experimental: as §1, §2

CDK7/CycH/MAT1 = CDK7/CycH/MAT1 (Homo sapiens, UniProt P50613); assay: Kinase Glo (ADP-Glo) biochemical assay, CDK7; conditions: CDK7/CycH/MAT1 40 ng, ATP 1 μM, 60 minutes at RT, luminescence
Experimental: Materials: • Assay Buffer: 50 mM HEPES, 3 mM MgCl2, 3 mM MnCl2, 1 mM DTT, 3 μM Na3VO4, pH 7.5 • Substrate RB • CTF Peptide (ProQinase #: 0040-0000-6) • Enzymes • CDK7/CycH/MAT1 (ProQinase #: 0366-0360-4) • ADP-Glo™ Assay (Promega #: V9101) • ATP: 10 mM • ADP-Glo™ Reagent • Kinase Detection Reagent • 384-well white assay plates
A ten point serial dilution of compound was prepared at 5X concentration in assay buffer with the final assay concentrations starting at 30 μM, 10 μM, 3 μM, 1 μM . . . 0 μM. Enzyme, substrate, and ATP were used at 40 ng, 200 ng (or 400 ng)* and 1 μM, respectively. The assay plate was set up by mixing the components in a total reaction volume of 10 μL per well. The plate was centrifuged gently for 10 seconds and incubated at room temperature (RT) for 60 minutes in the dark. The ADP-Glo Reagent and kinase detection reagent were added and incubated as recommended. The reaction was quantified by measuring luminescence on the Perkin Elmer Envision plate reader.

[4] = tested on: MiaPaCa2 pancreatic cancer cell line; assay: Cell viability assay (Cell Titer Glo), MiaPaCa2; assay type: cell-based; conditions: Homo sapiens, MIA PaCa-2; Table 7a; pancreatic cancer cell line, 72 hour incubation
Experimental: as §1, §2

[5] = tested on: HPAC pancreatic cancer cell line; assay: Cell viability assay (Cell Titer Glo), HPAC; assay type: cell-based; conditions: Homo sapiens, HPAC; Table 7a; pancreatic cancer cell line, 72 hour incubation
Experimental: as §1, §2

[6] = tested on: A673 Ewingsarcoma cell line; assay: Cell viability assay (Cell Titer Glo), A673; assay type: cell-based; conditions: Homo sapiens, A673, Table 7a, 72 hour incubation
Experimental: as §1, §2

CDK7/CycH/MAT1, sequence (P50613 whole entry): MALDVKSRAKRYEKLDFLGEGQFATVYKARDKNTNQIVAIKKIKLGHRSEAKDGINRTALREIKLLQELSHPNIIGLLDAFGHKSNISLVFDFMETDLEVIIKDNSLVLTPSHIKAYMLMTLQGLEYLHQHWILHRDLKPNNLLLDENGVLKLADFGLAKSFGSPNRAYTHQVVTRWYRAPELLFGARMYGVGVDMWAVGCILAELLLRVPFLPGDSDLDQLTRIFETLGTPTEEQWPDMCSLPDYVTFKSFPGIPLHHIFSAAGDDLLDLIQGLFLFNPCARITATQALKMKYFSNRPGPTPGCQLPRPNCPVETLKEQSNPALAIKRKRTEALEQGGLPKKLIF
CDK7/CycH/MAT1, sequence (P51946 whole entry partner): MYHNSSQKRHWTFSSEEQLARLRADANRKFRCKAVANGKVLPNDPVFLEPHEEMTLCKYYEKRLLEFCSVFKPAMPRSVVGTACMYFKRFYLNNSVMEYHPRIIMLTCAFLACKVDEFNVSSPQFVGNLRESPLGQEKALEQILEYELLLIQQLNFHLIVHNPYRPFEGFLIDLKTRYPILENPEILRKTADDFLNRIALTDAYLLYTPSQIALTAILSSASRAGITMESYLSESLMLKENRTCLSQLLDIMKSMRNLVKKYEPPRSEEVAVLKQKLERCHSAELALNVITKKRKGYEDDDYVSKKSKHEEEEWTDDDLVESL
CDK7/CycH/MAT1, sequence (P51948 whole entry partner): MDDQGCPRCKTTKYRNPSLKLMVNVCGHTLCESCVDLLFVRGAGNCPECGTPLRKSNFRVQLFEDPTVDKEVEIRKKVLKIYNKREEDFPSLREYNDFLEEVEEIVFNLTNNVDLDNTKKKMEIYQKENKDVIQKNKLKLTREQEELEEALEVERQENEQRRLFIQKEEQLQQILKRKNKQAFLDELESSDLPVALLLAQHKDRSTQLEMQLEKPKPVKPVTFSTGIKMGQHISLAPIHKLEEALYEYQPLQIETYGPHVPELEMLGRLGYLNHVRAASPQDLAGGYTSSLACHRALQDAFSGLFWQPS

SMILES	pIC50 [1]	pIC50 [2]	pIC50 [3]	IC50 (CDK7/CycH/MAT1) [nM]	pIC50 [4]	pIC50 [5]	pIC50 [6]
CC(C)c1cnc2c(N[C@@H](C)c3ccccc3)nc(SC3CCCNC3)cn12 (stereo partly drawn) [Compound 34, 3-isopropyl-N-((S)-1-phenylethyl)-6-(piperidin-3-ylthio)imidazo[1,2-α]pyrazin-8-amine hydrochloride]	< 5.30	5.30 to 6.00	5.30 to 6.00	< 100	5.30 to 6.00	5.30 to 6.00	< 5.30
CC(C)c1cnc2c(NCc3ccccc3OC(F)(F)F)cc(OC3CCNCC3)nn12 [Compound 43, 3-isopropyl-6-(piperidin-4-yloxy)-N-(2-(trifluoromethoxy)benzyl)imidazo[1,2-b]pyridazin-8-amine hydrochloride]	5.30 to 6.00	5.30 to 6.00	5.30 to 6.00	< 100	5.30 to 6.00	5.30 to 6.00	5.30 to 6.00
CC(C)c1cnc2c(NCc3ccccc3OC(F)(F)F)cc(SC3CCNCC3)nn12 [Compound 33]	5.30 to 6.00	5.30 to 6.00	> 6.00	< 100	> 6.00	> 6.00	> 6.00
COc1ccccc1CNc1nc(SC2CCNCC2)cn2c(C(C)C)cnc12 [Compound 51, 3-isopropyl-N-(2-methoxybenzyl)-6-(piperidin-4-ylthio)imidazo[1,2-a]pyrazin-8-amine formate]	< 5.30	–	5.30 to 6.00	< 100	5.30 to 6.00	5.30 to 6.00	–
c1ccc(CNc2cc(SC3CCCNC3)nn3c(C4CC4)cnc23)cc1 (stereo not shown) [Compound 22, N-benzyl-3-cyclopropyl-6-(piperidin-3-ylthio)imidazo[1,2-b]pyridazin-8-amine formate]	5.30 to 6.00	5.30 to 6.00	5.30 to 6.00	< 100	5.30 to 6.00	5.30 to 6.00	5.30 to 6.00
CC(C)c1cnc2c(Nc3cccc(F)c3)cc(SC3CCNCC3)nn12 [Compound 44, N-(3-fluorophenyl)-3-isopropyl-6-(piperidin-4-ylthio)imidazo[1,2-b]pyridazin-8-amine hydrochloride]	> 6.00	> 6.00	> 6.00	< 100	> 6.00	> 6.00	> 6.00
CC(C)c1cnc2c(N[C@@H](C)c3ccccc3)cc(SC3CCNCC3)nn12 [Compound 24, (S)-3-isopropyl-N-(1-phenylethyl)-6-(piperidin-4-ylthio)imidazo[1,2-b]pyridazin-8-amine]	5.30 to 6.00	5.30 to 6.00	> 6.00	< 100	5.30 to 6.00	5.30 to 6.00	5.30 to 6.00
CC(C)c1cnc2c(NCc3ccccc3OC(F)(F)F)cc(NC[C@H]3CNCCO3)nn12 [Compound 48, (R)-3-isopropyl-N6-(morpholin-2-ylmethyl)-N8-(2-(trifluoromethoxy)benzyl)imidazo[1,2-b]pyridazine-6,8-diamine hydrochloride]	5.30 to 6.00	< 5.30	5.30 to 6.00	< 100	5.30 to 6.00	5.30 to 6.00	5.30 to 6.00
CC(C)c1cnc2c(NCc3ccccc3)cc(S[C@@H]3CCCNC3)nn12 (single isomer, unassigned) [Compound 41, hydrochloride]	5.30 to 6.00	–	5.30 to 6.00	< 100	5.30 to 6.00	5.30 to 6.00	5.30 to 6.00
CC(C)c1cnc2c(NCc3ccccc3)nc(SC3CCCNC3)cn12 (stereo not drawn) [Compound 26, N-benzyl-3-isopropyl-6-(piperidin-3-ylthio)imidazo[1,2-α]pyrazin-8-amine formate salt]	< 5.30	5.30 to 6.00	5.30 to 6.00	< 100	< 5.30	5.30 to 6.00	5.30 to 6.00
